The nature of data set [1]: in vitro metabolic stability in human liver microsomes. Conditions: human, liver microsomes, 0.5 μM compound, 0.5 mg/mL microsomes, NADPH, 40 min, 37° C.; read-out: Human liver microsome Clapp (apparent intrinsic clearance). It counts as in vitro ADME. The protocol: To assess the in vitro metabolic stability, the compounds (0.5 μM) were incubated in duplicates with human liver microsomes (0.5 mg/mL) in phosphate buffer and NADPH, in 96-well plates for 40 min (37° C.), using a liquid handling robot (Hamilton Microlab Star). Sample aliquots were taken at 0, 5, 10, 20 and 40 min, and dispensed into cold acetonitrile, in order to stop the reactions. The plates were centrifuged for 30 minutes before the samples were analyzed using liquid chromatography coupled to a time-of-flight mass spectrometer (AB Sciex API5600). The compound depletion over time was used to estimate the elimination rate constant, from which the apparent intrinsic clearance, Clapp, was calculated and the values are listed in Table 2.
In general terms: Liver microsomes are vesicles of endoplasmic reticulum, rich in cytochrome P450 enzymes.

The target in a further data set is JAK1 (Homo sapiens (Human), UniProt P23458). In words: JAK kinase assay (HTRF), JAK1. In kind it is biochemical. Conditions: catalytic domain, ATP at Km (7 μM). An outline of the steps:
(§1)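 Catalytic-domain human JAK1 (GST-tagged, aa 850-1154) or His-tagged JAK2, baculovirus-expressed, phosphorylated 1 µM biotinylated TK peptide at Km ATP (JAK1 7 µM, 10 mM MgCl2, 50 nM SEB; JAK2 4 µM, 5 mM MgCl2) in pH 7.0 Hepes, 20-30 min RT. EDTA stop; overnight streptavidin-XL665/cryptate HTRF read.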

Another data set addresses JAK2 (Homo sapiens (Human), UniProt O60674). In words: JAK kinase assay (HTRF), JAK2. It counts as biochemical. To be noted: catalytic domain, ATP at Km (4 μM). An outline of the steps:
as §1

Another data set deals with JAK3 (Homo sapiens (Human), UniProt P52333). In words: JAK kinase assay (HTRF), JAK3. In kind it is biochemical. To be noted: catalytic domain, ATP at Km (2 μM). An outline of the steps:
(§2)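 Catalytic-domain human kinases, GST-tagged TYK2 (aa 871-1187) and His-tagged JAK3, phosphorylate 1 μM TK Substrate-Biotin for 20-30 min at RT in 50 mM Hepes pH 7.0, 5 mM MgCl2, ATP at Km (TYK2 13 μM with 50 nM SEB; JAK3 2 μM). Phosphorylation detected by HTRF.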
A general note: Time-resolved FRET reads energy transfer from a long-lived donor to a nearby acceptor.

The target of a further data set is TYK2 (Homo sapiens (Human), UniProt P29597). In words: JAK kinase assay (HTRF), TYK2. To be noted: catalytic domain, ATP at Km (13 μM). It counts as biochemical. The essentials: as §2

CLint scaled and EC50 data for 20 molecules are collected here from patent US10799507B2, “5-(7H-pyrrolo[2,3-d]pyrimidin-4-yl)-5-azaspiro[2.5]octane-8-carboxylic acid derivatives as novel JAK kinase inhibitors” (LEO Pharma A/S, priority 2017, dated 2020).

Bounds are passed on as bounds.

Sequence of TYK2 (P29597 871-1187): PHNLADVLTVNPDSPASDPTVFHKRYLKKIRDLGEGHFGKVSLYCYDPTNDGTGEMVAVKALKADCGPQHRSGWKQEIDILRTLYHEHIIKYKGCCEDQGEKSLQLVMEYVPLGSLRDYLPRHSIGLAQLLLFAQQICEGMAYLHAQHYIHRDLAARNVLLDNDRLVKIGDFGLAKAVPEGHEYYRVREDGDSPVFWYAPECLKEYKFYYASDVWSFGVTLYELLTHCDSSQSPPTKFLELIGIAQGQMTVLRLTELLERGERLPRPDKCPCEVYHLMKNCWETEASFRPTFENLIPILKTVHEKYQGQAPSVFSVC
Sequence of JAK3 (P52333 822-1111): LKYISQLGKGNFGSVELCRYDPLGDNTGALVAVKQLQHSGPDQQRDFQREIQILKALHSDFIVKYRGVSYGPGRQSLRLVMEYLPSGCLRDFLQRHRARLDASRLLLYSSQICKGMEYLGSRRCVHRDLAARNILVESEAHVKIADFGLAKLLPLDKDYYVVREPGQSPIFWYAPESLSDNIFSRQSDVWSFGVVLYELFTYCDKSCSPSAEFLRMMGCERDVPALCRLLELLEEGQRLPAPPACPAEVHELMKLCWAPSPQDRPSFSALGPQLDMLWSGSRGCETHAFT
Sequence of JAK2 (O60674 849-1124): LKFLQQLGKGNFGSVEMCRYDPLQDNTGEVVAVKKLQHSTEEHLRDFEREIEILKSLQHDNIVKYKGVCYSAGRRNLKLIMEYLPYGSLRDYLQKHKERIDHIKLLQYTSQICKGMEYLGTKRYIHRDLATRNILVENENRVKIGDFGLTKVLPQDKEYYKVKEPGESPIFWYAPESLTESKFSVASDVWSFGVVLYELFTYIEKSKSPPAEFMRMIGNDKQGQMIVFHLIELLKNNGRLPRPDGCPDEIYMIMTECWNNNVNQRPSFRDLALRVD
Sequence of JAK1 (P23458 850-1154): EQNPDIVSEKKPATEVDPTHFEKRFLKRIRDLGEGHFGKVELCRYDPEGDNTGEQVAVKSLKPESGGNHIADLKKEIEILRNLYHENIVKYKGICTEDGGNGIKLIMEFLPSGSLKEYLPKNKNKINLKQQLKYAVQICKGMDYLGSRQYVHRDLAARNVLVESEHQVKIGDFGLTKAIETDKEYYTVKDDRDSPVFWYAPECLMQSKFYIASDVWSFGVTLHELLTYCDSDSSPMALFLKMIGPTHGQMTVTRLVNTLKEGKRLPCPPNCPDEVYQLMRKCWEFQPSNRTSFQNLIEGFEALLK

Consider `O=C(OCC1(CO)CCCCC1)[C@H]1CCN(c2ncnc3[nH]ccc23)CC12CC2` [Example 161, [1-(hydroxymethyl)cyclohexyl]methyl (8S)-5-(7H-pyrrolo[2,3-d]pyrimidin-4-yl)-5-azaspiro[2.5]octane-8-carboxylate], for which the CLint scaled at 0.5 μM in data set [1] is more than 200 mL/min/kg.
By EC50 is commonly meant the concentration giving half of the maximal effect. Lower therefore signals a more potent agent. In the case of `N#Cc1ccc(CNC(=O)C2CCN(c3ncnc4[nH]ccc34)CC23CC3)nc1` (centres unmarked) [Example 76, N-[(5-cyano-2-pyridyl)methyl]-5-(7H-pyrrolo[2,3-d]pyrimidin-4-yl)-5-azaspiro[2.5]octane-8-carboxamide], the CLint scaled at 0.5 μM in data set [1] came to 139 mL/min/kg. In addition, the EC50 at JAK1 is 6.2 nM; on JAK2, 43.3 nM; on JAK3, 53.6 nM.
Turning to `O=C(NCc1cccc(F)c1)C1CCN(c2ncnc3[nH]ccc23)CC12CC2` (centres unmarked) [Example 81, N-[(3-fluorophenyl)methyl]-5-(7H-pyrrolo[2,3-d]pyrimidin-4-yl)-5-azaspiro[2.5]octane-8-carboxamide], the EC50 at TYK2 was 117 nM; on JAK1, 6.7 nM; at JAK2, 14.1 nM; at JAK3 it was 37.7 nM.
The corresponding values for `NS(=O)(=O)c1ccc(CNC(=O)C2CCN(c3ncnc4[nH]ccc34)CC23CC3)cc1` (centres unmarked) [Example 33, 5-(7H-pyrrolo[2,3-d]pyrimidin-4-yl)-N-[(4-sulfamoylphenyl)methyl]-5-azaspiro[2.5]octane-8-carboxamide] are 28.9 nM, 1.9 nM, 5 nM and 6 nM.
On the same counts, the results for `COc1cc(F)ccc1[C@H](CO)NC(=O)[C@H]1CCN(c2ncnc3[nH]ccc23)CC12CC2` [Example 109, (8S)-N-[(1R)-1-(4-fluoro-2-methoxy-phenyl)-2-hydroxy-ethyl]-5-(7H-pyrrolo[2,3-d]pyrimidin-4-yl)-5-azaspiro[2.5]octane-8-carboxamide] are 243 nM, 10.5 nM, 24.5 nM and 111 nM.
On the same counts, the results for `N#C[C@H]1CC[C@H](CNC(=O)C2CCN(c3ncnc4[nH]ccc34)CC23CC3)C1` (stereo partly drawn) [Example 83, N-[[(1S,3S)-3-cyanocyclopentyl]methyl]-5-(7H-pyrrolo[2,3-d]pyrimidin-4-yl)-5-azaspiro[2.5]octane-8-carboxamide] are 390 nM, 6.8 nM, 22.6 nM and 44.3 nM.
With `COc1cc(C#N)ccc1CNC(=O)[C@H]1CCN(c2ncnc3[nH]ccc23)CC12CC2` [Example 71, (8S)-N-[(4-cyano-2-methoxy-phenyl)methyl]-5-(7H-pyrrolo[2,3-d]pyrimidin-4-yl)-5-azaspiro[2.5]octane-8-carboxamide], the EC50 came to 121 nM at TYK2, 5.8 nM at JAK1, 14.2 nM on JAK2 and 63.1 nM at JAK3.
For `N#Cc1ccc([C@H](CO)NC(=O)[C@H]2CCN(c3ncnc4[nH]ccc34)CC23CC3)nc1` [Example 47, (8S)-N-[(1R)-1-(5-cyano-2-pyridyl)-2-hydroxy-ethyl]-5-(7H-pyrrolo[2,3-d]pyrimidin-4-yl)-5-azaspiro[2.5]octane-8-carboxamide], the EC50 on TYK2 was found to be 176 nM; on JAK1 it was 3.1 nM; at JAK2, 13.7 nM; on JAK3, 32.4 nM.
The corresponding values for `C[C@@H](NC(=O)[C@H]1CCN(c2ncnc3[nH]ccc23)CC12CC2)[C@@H](O)c1ccc(C#N)cc1` [Example 146, (8S)-N-[(1R,2S)-2-(4-cyanophenyl)-2-hydroxy-1-methyl-ethyl]-5-(7H-pyrrolo[2,3-d]pyrimidin-4-yl)-5-azaspiro[2.5]octane-8-carboxamide] are 1840 nM, 67.7 nM, 188 nM and 266 nM.
For `COc1cc(CNC(=O)[C@H]2CCN(c3ncnc4[nH]ccc34)CC23CC3)ccc1C#N` [Example 93, (8S)-N-[(4-cyano-3-methoxy-phenyl)methyl]-5-(7H-pyrrolo[2,3-d]pyrimidin-4-yl)-5-azaspiro[2.5]octane-8-carboxamide], the EC50 at TYK2 worked out at 118 nM; on JAK1, 8.5 nM; on JAK2, 29.3 nM; on JAK3, 74.1 nM.
The corresponding values for `Cc1cc(F)ccc1[C@H](CO)NC(=O)[C@H]1CCN(c2ncnc3[nH]ccc23)CC12CC2` [Example 77, (8S)-N-[(1R)-1-(4-fluoro-2-methyl-phenyl)-2-hydroxy-ethyl]-5-(7H-pyrrolo[2,3-d]pyrimidin-4-yl)-5-azaspiro[2.5]octane-8-carboxamide] are 115 nM, 6.2 nM, 16.3 nM and 31.3 nM.
As for `Cc1ccc([C@H](O)[C@H](C)NC(=O)[C@H]2CCN(c3ncnc4[nH]ccc34)CC23CC3)cc1` [Example 73, (8S)-N-[(1S,2S)-2-hydroxy-1-methyl-2-(p-tolyl)ethyl]-5-(7H-pyrrolo[2,3-d]pyrimidin-4-yl)-5-azaspiro[2.5]octane-8-carboxamide], the EC50 at TYK2 turned out to be 171 nM; at JAK1, 6.1 nM; at JAK2, 8.3 nM; on JAK3, 30.9 nM.
On the same counts, the results for `COc1cccc(CNC(=O)C2CCN(c3ncnc4[nH]ccc34)CC23CC3)c1` (centres unmarked) [Example 119, N-[(3-methoxyphenyl)methyl]-5-(7H-pyrrolo[2,3-d]pyrimidin-4-yl)-5-azaspiro[2.5]octane-8-carboxamide] are 539 nM, 13.4 nM, 36.8 nM and 71.1 nM.
With `C[C@@H](NC(=O)C1CCN(c2ncnc3[nH]ccc23)CC12CC2)c1ccccc1` (stereo partly drawn) [Example 136, N-[(1R)-1-phenylethyl]-5-(7H-pyrrolo[2,3-d]pyrimidin-4-yl)-5-azaspiro[2.5]octane-8-carboxamide], the EC50 was 1460 nM at TYK2, 33.8 nM at JAK1, 55.1 nM at JAK2 and 111 nM on JAK3.
On to `O=C(NCc1cccnc1)C1CCN(c2ncnc3[nH]ccc23)CC12CC2` (centres unmarked) [Example 128, N-(3-pyridylmethyl)-5-(7H-pyrrolo[2,3-d]pyrimidin-4-yl)-5-azaspiro[2.5]octane-8-carboxamide], for which the EC50 at TYK2 turned out to be 1410 nM; on JAK1, 20.5 nM; at JAK2, 38.2 nM; at JAK3, 58.6 nM.
The corresponding values for `O=C(N[C@@H](CO)C1CCC1)[C@H]1CCN(c2ncnc3[nH]ccc23)CC12CC2` [Example 148, (8S)-N-[(1R)-1-cyclobutyl-2-hydroxy-ethyl]-5-(7H-pyrrolo[2,3-d]pyrimidin-4-yl)-5-azaspiro[2.5]octane-8-carboxamide] are 1080 nM, 70.6 nM, 139 nM and 163 nM.
Consider `O=C(NCc1ccc(F)cc1)C1CCN(c2ncnc3[nH]ccc23)CC12CC2` (centres unmarked) [Example 53, N-[(4-fluorophenyl)methyl]-5-(7H-pyrrolo[2,3-d]pyrimidin-4-yl)-5-azaspiro[2.5]octane-8-carboxamide], for which the EC50 at TYK2 was 106 nM; at JAK1, 3.6 nM; at JAK2, 8.9 nM; on JAK3 it was 20.8 nM.
On the same counts, the results for `O=C(NCC1CC(F)(F)C1)[C@H](O)CNC(=O)[C@H]1CCN(c2ncnc3[nH]ccc23)CC12CC2` (single isomer, unassigned) [Example 130] are 490 nM, 23.2 nM, 45.9 nM and 51 nM.
The corresponding values for `O=C(NC[C@H](O)c1ccc(F)cn1)[C@H]1CCN(c2ncnc3[nH]ccc23)CC12CC2` [Example 46, (8S)-N-[(2S)-2-(5-fluoro-2-pyridyl)-2-hydroxy-ethyl]-5-(7H-pyrrolo[2,3-d]pyrimidin-4-yl)-5-azaspiro[2.5]octane-8-carboxamide] are 48.1 nM, 3.1 nM, 8.8 nM and 23.8 nM.
With `CCc1cc(C#N)ccc1[C@@H](C)NC(=O)[C@H]1CCN(c2ncnc3[nH]ccc23)CC12CC2` [Example 121, (8S)-N-[(1R)-1-(4-cyano-2-ethyl-phenyl)ethyl]-5-(7H-pyrrolo[2,3-d]pyrimidin-4-yl)-5-azaspiro[2.5]octane-8-carboxamide], the EC50 amounted to 289 nM on TYK2, 15.3 nM at JAK1, 44.7 nM at JAK2 and 141 nM at JAK3.
